Assays:
rCYP4F2 = biological target: T1, rCYP4F2 (Homo sapiens, UniProt P78329); assay: Inhibition of 20-HETE formation at 250 or 500 nM in rCYP4F2 incubations; type: biochemical; details: rCYP4F2 25 pmol/mL; for inhibition at 0.5 µM: 500 nM compound, read-out: rCYP4F2 % inh. @ 500 nM; for inhibition at 0.25 µM: 250 nM compound, read-out: rCYP4F2 % inh. @ 250 nM
T1 sequence (P78329 5-520): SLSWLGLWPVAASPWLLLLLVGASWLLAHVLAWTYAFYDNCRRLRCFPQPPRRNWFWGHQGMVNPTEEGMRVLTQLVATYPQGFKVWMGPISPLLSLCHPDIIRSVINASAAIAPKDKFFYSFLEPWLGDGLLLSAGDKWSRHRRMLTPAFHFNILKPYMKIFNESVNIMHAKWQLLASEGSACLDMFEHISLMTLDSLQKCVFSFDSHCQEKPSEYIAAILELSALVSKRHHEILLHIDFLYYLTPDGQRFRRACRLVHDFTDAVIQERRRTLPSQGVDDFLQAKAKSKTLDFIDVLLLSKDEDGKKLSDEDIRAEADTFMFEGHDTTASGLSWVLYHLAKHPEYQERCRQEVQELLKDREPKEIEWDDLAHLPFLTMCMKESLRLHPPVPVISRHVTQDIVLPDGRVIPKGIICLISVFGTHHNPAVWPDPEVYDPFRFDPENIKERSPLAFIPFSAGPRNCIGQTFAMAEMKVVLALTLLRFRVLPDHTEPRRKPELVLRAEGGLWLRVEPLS
Method in brief: (§1)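 Microsomes (300 μg/ml) or rCYP4F2 (25 pmol/mL) were incubated with 100 μM arachidonic acid, 1 mM NADPH and test compound in 0.12 M potassium phosphate with 5 mM MgCl2 for 20 min at 37° C. 20-HETE was quantified by UPLC-MS/MS with 20-HETE-d6 internal standard and expressed as percent of vehicle (n=3).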

[1] = system: 20-HETE formation (CYP4) in HLM; assay: Inhibition of 20-HETE formation at 250 or 500 nM in HLM microsomal incubations; type: biochemical, human; details: HLM 300 μg/ml, AA 100 μM, 20 min; for HLM % inh. @ 500 nM: 500 nM compound; for HLM % inh. @ 250 nM: 250 nM compound
Method in brief: as §1

[2] = system: 20-HETE formation (CYP4) in RLM; assay: Inhibition of 20-HETE formation at 250 or 500 nM in RLM microsomal incubations; type: biochemical, rat; details: RLM 300 μg/ml; for RLM % inh. @ 500 nM: 500 nM compound; for RLM % inh. @ 250 nM: 250 nM compound
Method in brief: as §1

[3] = HLM stability determination; type: in vitro ADME, human; details: HLM 500 μg/ml, 1 μM compound, NADPH, relative to 0 min
Protocol: HLM stability determinations shown in Table 3 were obtained as follows. Microsomal incubates contained HLM (500 μg/ml), test compounds (1 μM) and NADPH (1.3 mM) in a 1 ml total volume of microsomal incubation buffer (0.12 M potassium phosphate buffer containing 5 mM magnesium chloride). Reaction was started by adding NADPH to the incubates and was carried out at 37° C. in a shaking water bath for 60 min. At 0, 15, 30, 45, 60 min, a 50 μl aliquot of incubates was taken out and reaction was stopped by adding aliquot into 200 μl ice-cold acetonitrile. After centrifugation at 14000×g for 5 min, 200 μl supernatant was taken out for UPLC-MS/MS analysis as described above. Values at 0 min were used as corresponding control for test compounds. Varapamil, metoprolol, and warfarin, categorized as fast, moderate and slow metabolism, were used as positive control. Incubates without NADPH group served as negative control.

[4] = system: 20-HETE formation (CYP4) in RLM; assay: IC50 determination, 20-HETE formation in RLM; type: biochemical, rat; details: RLM 300 μg/ml, AA 100 μM, 12 concentrations
Protocol: Microsomal incubations contained HLM, RLM (300 μg/ml), AA (100 μM), NADPH (1 mM) and test compounds at 12 concentrations (0.1 nM-50 μM) in a 1 ml total volume in microsomal incubation buffer (0.12 M potassium phosphate buffer containing 5 mM magnesium chloride). Reaction was started by adding NADPH to the incubates and was carried out at 37° C. in a shaking water bath for 20 min. Reaction was stopped by placing tubes on ice, followed by adding 12.5 μl 20-HETE-d6 as internal standard to each sample. Microsomal incubations were extracted with 3 ml ethyl ether twice, dried down under nitrogen gas and reconstituted in 125 μl 80:20 methanol:deionized H2O for analysis. 20-HETE formation was quantified using the validated UPLC-MS/MS assay described above and normalized by vehicle group. HET0016 (250 nM) was used as positive control. Incubates without NADPH group served as the negative control. IC50 was determined by fitting the dose-response curve using Graphpad Prism nonlinear regression.

[5] = system: 20-HETE formation (CYP4) in RKM; assay: Inhibition of 20-HETE formation at 250 or 500 nM in RKM microsomal incubations; type: biochemical, rat; details: RKM 300 μg/ml; for RKM % inh. @ 500 nM: 500 nM compound; for RKM % inh. @ 250 nM: 250 nM compound
Method in brief: as §1

Row | SMILES | inhibition at 0.5 µM (rCYP4F2) | HLM % inh. @ 500 nM [1] | RLM % inh. @ 500 nM [2] | Stability HLM % @ 30 min [3] | IC50 [4] | RKM % inh. @ 500 nM [5] | inhibition at 0.25 µM (rCYP4F2) | HLM % inh. @ 250 nM [1] | RLM % inh. @ 250 nM [2] | RKM % inh. @ 250 nM [5]
1 | O=C1CCCN1Cc1ccc(C2CCN(c3cn[nH]c3)CC2)cc1 [Compound 83, 1-(4-(1-(1H-Pyrazol-4-yl)piperidin-4-yl)benzyl)pyrrolidin-2-one] | 96.2% | 91.6% | 49.60% | 91% | 720 nM |  |  |  |  | 
2 | c1ccc(CC2CCN(c3cn[nH]c3)CC2)cc1 [Compound 3, 4-Benzyl-1-(1H-pyrazol-4-yl)piperidine] | 77% | 77.30% | 2.40% | 85% |  | 0.00% |  |  |  | 
3 | c1ccc(C2CCN(c3cn[nH]c3)CC2)cc1 [Compound 1, 4-Phenyl-1-(1H-pyrazol-4-yl)piperidine] |  | 78.80% |  | 100% |  |  | 78.5% | 64.29% | 27.40% | 18.00%
4 | CC(=O)N(C)c1ccc(C2CCN(c3cn[nH]c3)CC2)cc1 [Compound 28, N-(4-(1-(1H-Pyrazol-4-yl)piperidin-4-yl)phenyl)-N-methylacetamide] | 58% | 75.00% | 52.00% |  |  | 43.00% |  |  |  | 
5 | COc1ccc(C2CCN(c3cn[nH]c3)CC2)cc1 [Compound 20, 4-(4-Methoxyphenyl)-1-(1H-pyrazol-4-yl)piperidine] | 67.7% | 73.10% | 25.90% | 92% |  | 4.90% |  |  |  | 
6 | O=C1CCCN1c1ccc(C2CCN(c3cn[nH]c3)CC2)cc1 [Compound 100, 1-(4-(1-(1H-Pyrazol-4-yl)piperidin-4-yl)phenyl)pyrrolidin-2-one] | 81.2% | 76.1% | 42.90% | 95% | 570 nM |  |  |  |  | 
7 | c1ccc(C2CCN(c3ccn[nH]3)CC2)cc1 [Compound 54, 4-Phenyl-1-(1H-pyrazol-5-yl)piperidine] |  | 47.40% |  | 91% |  |  | 53.6% | 31.60% | 12.00% | 0.00%
8 | COc1ccc(C2CCN(c3ccn[nH]3)CC2)cc1 [Compound 19, 4-(4-Methoxyphenyl)-1-(1H-pyrazol-5-yl)piperidine] | 41.4% | 72.30% | 31.80% | 89% |  | 0.00% |  |  |  | 
9 | Clc1ccc(CC2CCN(c3cn[nH]c3)CC2)cc1 [Compound 93, 4-(4-Chlorobenzyl)-1-(1H-pyrazol-4-yl)piperidine] | 97% | 93.03% | 64.30% | 85% | 120 nM |  |  |  |  | 
10 | Cc1cccc(C2CCN(c3cn[nH]c3)CC2)c1 [Compound 34, 1-(1H-Pyrazol-4-yl)-4-(m-tolyl)piperidine] | 86% | 80.00% | 44.00% |  |  | 36.00% |  |  |  | 
